{"source": "paper PMC3070735", "about": "“Uremic Toxins Inhibit Transport by Breast Cancer Resistance Protein and Multidrug Resistance Protein 4 at Clinically Relevant Concentrations” (PLoS ONE, 2011)", "biological_target": "T1, BCRP (Homo sapiens, UniProt Q9UNQ0)", "T1 sequence (Q9UNQ0 1-655)": "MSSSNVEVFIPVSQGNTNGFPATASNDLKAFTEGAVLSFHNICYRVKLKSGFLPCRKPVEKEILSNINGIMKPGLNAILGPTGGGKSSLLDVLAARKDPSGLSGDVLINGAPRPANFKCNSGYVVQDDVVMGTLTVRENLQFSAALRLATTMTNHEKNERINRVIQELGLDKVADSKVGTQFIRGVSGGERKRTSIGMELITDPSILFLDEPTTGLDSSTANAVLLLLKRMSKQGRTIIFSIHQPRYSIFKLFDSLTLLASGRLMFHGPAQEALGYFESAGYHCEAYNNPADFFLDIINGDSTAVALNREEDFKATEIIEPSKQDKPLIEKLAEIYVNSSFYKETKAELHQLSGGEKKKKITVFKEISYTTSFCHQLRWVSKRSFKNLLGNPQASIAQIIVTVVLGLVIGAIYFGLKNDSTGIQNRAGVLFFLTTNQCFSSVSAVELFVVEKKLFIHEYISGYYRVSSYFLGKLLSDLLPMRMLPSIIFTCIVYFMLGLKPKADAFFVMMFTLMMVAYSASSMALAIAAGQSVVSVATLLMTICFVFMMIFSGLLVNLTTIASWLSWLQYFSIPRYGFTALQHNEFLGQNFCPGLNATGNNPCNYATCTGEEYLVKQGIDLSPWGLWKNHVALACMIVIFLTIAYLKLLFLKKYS", "assay": "Membrane vesicle transport inhibition assay: BCRP-mediated [3H]-E1S uptake", "details": "for Mode of inhibition of BCRP-mediated transport: Dixon plot, three [3H]-E1S concentrations; for IC50: IC50, [3H]-E1S uptake into BCRP membrane vesicles, 1 min, 37°C, mean ± SEM of three experiments; for IC20 at 1 min: human, membrane vesicles from HEK293 cells overexpressing BCRP, pH 7, probe [3H]-estrone sulfate ([3H]-E1S); for Decrease of BCRP-mediated transport compared to control: toxin 1 mM", "protocol": "Human embryonic kidney (HEK293; purchased at American Type Culture Collection, Manassas, VA) cells were cultured in Dulbecco's modified Eagle's medium (Invitrogen life sciences, Breda, the Netherlands) containing 10% (v/v) fetal calf serum (MP Biomedicals, Uden, the Netherlands) at 37°C in a 5% (v/v) CO2 atmosphere. To functionally overexpress MRP4 and BCRP, HEK293 cells were transduced with baculoviruses of human MRP4, BCRP or enhanced yellow fluorescent protein (EYFP), generated via the Bac-to-Bac system (Invitrogen) as previously described. To transduce HEK293 cells, they were cultured in 500 cm^2 flasks until 70% confluence. Subsequently, medium was removed and 10 ml of virus and 25 ml of medium were added and incubated for 30 min at 37°C. Next, 50 ml of medium was added and after 2 h of transduction 5 mM sodium butyrate was added.\nThree days after transduction, cells were harvested and pelleted by centrifugation (30 min at 4,000 x g). Afterwards, the cells were resuspended in ice-cold hypotonic TS buffer (0.5 mM sodium phosphate, 0.1 mM EDTA, pH 7.0) containing protease inhibitors (100 µM phenylmethylsulfonyl fluoride, 5 µg/ml aprotinin, 5 µg/ml leupeptin, 1 µg/ml pepstatin and 1 µg/ml E-64) and shaken for 30 min at 4°C. Cells were then centrifuged at 100,000 x g for 30 min at 4°C. Subsequently, pellet was resuspended in ice-cold isotonic buffer (10 mM Tris-HEPES and 250 mM sucrose, pH 7.4, adjusted with HEPES) supplemented with protease inhibitors and homogenized using a tight fitting Dounce homogenizer followed by centrifugation (1,000 x g, 20 min, 4°C). Afterwards, supernatant was centrifuged at 100,000 x g for 1 h at 4°C. The resulting pellet was resuspended in isotonic buffer and passed through a 27-gauge needle 25 times to obtain crude membrane vesicles. The protein content of samples was determined using the Bio-Rad protein assay (Veenendaal, the Netherlands), according to manufacturers recommendations. Vesicles were frozen in liquid nitrogen and stored at −80°C until use. The orientation of the membrane vesicles was not determined, since ATP-dependent uptake occurs only in inside-out vesicles.\nA rapid filtration technique was used to study the uptake of [^3H]-MTX and [^3H]-E1S into MRP4 or BCRP membrane vesicles, as previously described. In short, 25 µl of TS buffer containing 4 mM ATP, 10 mM MgCl2 and radiolabeled substrate was added to 5 µl of the membrane vesicles (1.5 mg/ml). The transport assay was performed in the absence or presence of various concentrations of uremic toxins to evaluate the inhibitory effects of these compounds on MRP4-mediated [^3H]-MTX uptake and BCRP-mediated [^3H]-E1S uptake. […] Uptake was stopped by placing the samples on ice and the addition of 150 µl ice cold TS buffer. Subsequently, the samples were transferred to a 96 well filter plate (Millipore, Etten-leur, the Netherlands) pre-incubated with TS buffer and filtered using a Multiscreen HTS-Vacuum Manifold filtration device (Millipore). Afterwards, 2 ml of scintillation liquid was added to each filter and radioactivity was determined using liquid scintillation counting. As negative controls ATP was substituted for AMP and EYFP-membrane vesicles were used. Each experiment was performed in triplicates.\nStatistics were performed using GraphPad Prism 5.02 via an unpaired t test or a Kruskal-Wallis test followed by a Dunn's Multiple Comparison test. Differences between groups were considered to be statistically significant when p<0.05. The mean IC50 and IC20 values were calculated from the inhibition curves used for the Dixon analysis and to determine the inhibition constant (Ki) from the Dixon plots. Transport inhibition studies were performed in triplicate and repeated at least three times.", "key": {"[1]": {"details": "[3H]-E1S uptake, result in words"}}, "note": "Counter-ions that a name gives are not always drawn. Like-named read-outs stand apart in the source and are kept apart here."}
{"smiles": "O=C(O)CNC(=O)c1ccccc1", "note": "[hippuric acid]", "values": [{"measurement": "Ki", "value": "4000 ± 100", "unit": "µM"}, {"measurement": "Extent of inhibition of [3H]-E1S uptake by BCRP", "setting": "0.1 mM to 3.5 mM, result in words", "value": "completely blocked"}, {"measurement": "Mode of inhibition of BCRP-mediated transport", "value": "non-competitive"}, {"measurement": "IC50", "value": "3670 ± 170", "unit": "µM"}, {"measurement": "IC20 at 1 min", "value": "690 ± 70", "unit": "µM"}]}
{"smiles": "O=C(O)Cc1c[nH]c2ccccc12", "note": "[indole-3-acetic acid]", "values": [{"measurement": "Effect on transport mediated by BCRP", "setting": "[1]", "value": "only reduced [^3H]-MTX uptake by MRP4"}]}
{"smiles": "O=S(=O)(O)Oc1c[nH]c2ccccc12", "note": "[indoxyl sulfate]", "values": [{"measurement": "Ki", "value": 500, "unit": "µM"}, {"measurement": "Mode of inhibition of BCRP-mediated transport", "value": "non-competitive"}, {"measurement": "IC50", "value": "770 ± 120", "unit": "µM"}, {"measurement": "IC20 at 1 min", "value": "390 ± 30", "unit": "µM"}]}
{"smiles": "O=C(O)c1cc(=O)c2ccccc2[nH]1", "note": "[kynurenic acid]", "values": [{"measurement": "Ki", "value": 50, "unit": "µM"}, {"measurement": "IC50", "value": "40 ± 1", "unit": "µM"}, {"measurement": "IC20 at 1 min", "value": "10 ± 1", "unit": "µM"}]}
{"smiles": "O=C(O)C(=O)O", "note": "[oxalate]", "values": [{"measurement": "Effect on transport mediated by BCRP", "setting": "[1]", "value": "did not alter transport"}, {"measurement": "Decrease of BCRP-mediated transport compared to control", "setting": "[3H]-E1S uptake", "value": "≤ 10", "unit": "%"}]}
{"smiles": "Cc1ccc(O)cc1", "note": "[p-cresol]", "values": [{"measurement": "Effect on transport mediated by BCRP", "value": "did not alter transport"}, {"measurement": "Decrease of BCRP-mediated transport compared to control", "setting": "[3H]-E1S uptake", "value": "≤ 10", "unit": "%"}]}
{"smiles": "Cc1ccc(S(=O)(=O)O)cc1", "note": "[p-toluenesulfonic acid, reference compound]", "values": [{"measurement": "Effect on transport mediated by BCRP", "setting": "[1]", "value": "did not alter transport"}, {"measurement": "Decrease of BCRP-mediated transport compared to control", "setting": "[3H]-E1S uptake", "value": "≤ 10", "unit": "%"}]}
{"smiles": "O=C(O)Cc1ccccc1", "note": "[phenylacetic acid]", "values": [{"measurement": "Effect on transport mediated by BCRP", "setting": "[1]", "value": "only reduced [^3H]-MTX uptake by MRP4"}]}
{"smiles": "NCCCCN", "note": "[putrescine]", "values": [{"measurement": "Effect on transport mediated by BCRP", "setting": "[1]", "value": "did not alter transport"}, {"measurement": "Decrease of BCRP-mediated transport compared to control", "setting": "[3H]-E1S uptake", "value": "≤ 10", "unit": "%"}]}
{"smiles": "O=C(O)c1cccnc1C(=O)O", "note": "[quinolinic acid]", "values": [{"measurement": "Effect on transport mediated by BCRP", "setting": "[1]", "value": "did not alter transport"}, {"measurement": "Decrease of BCRP-mediated transport compared to control", "setting": "[3H]-E1S uptake", "value": "≤ 10", "unit": "%"}]}
